# Laboratory results taken from patent US20250313559A1 (Bayer Aktiengesellschaft, priority 2024, published 2025).
# Tests used:
# [1] = tested on: preclinical cardiorenal models; conditions: preclinical cardiorenal models which develop heart failure; cited from earlier work
# [2] = tested on: patients with HF and LVEF ≥40%; assay: […]-HF (Example 2) health status: KCCQ-TSS, NYHA class, EQ-5D-5L; assay type: in vivo, human; conditions: adjusted for baseline value, geographic region
# Description: Kansas City Cardiomyopathy Questionnaire (KCCQ) is a standardized patient reported outcomes (PRO) questionnaire which assesses symptoms, physical and social limitations, and quality of life in patients with heart failure (HF). Patients are asked to recall how their HF impacted their life over a 2-week recall period.
# Total HF events was analyzed using an LWYY model in a similar fashion to the primary endpoint. The percentage of participants with improvement in NYHA class from Baseline to Month 12, was analyzed with a logistic regression model including factors for treatment group and stratification levels. Patients that died or are lost to follow-up at month 12 was considered to had not improved. The absolute change from baseline including measurements up to Month 12 of the TSS of the KCCQ, was analyzed by a repeated measures mixed model including the factors treatment group, baseline, visit, baseline-by-visit interaction, and factors for the stratification levels. The comparison assumed a common treatment effect across Month 6, 9 and 12. […] The composite renal endpoint and all-cause mortality was analyzed using a stratified log-rank test for testing and a stratified Cox proportional hazards model for obtaining a point estimate with 95% confidence interval. […]
# [3] = tested on: participants with chronic kidney disease and Type-2 diabetes; conditions: cited from earlier work
# [4] = tested on: patients with HF and LVEF ≥40%; assay: […]-HF (Example 2) safety: adverse events, hyperkalemia, serum potassium, eGFR, creatinine, vital signs; assay type: in vivo, human; conditions: number of patients (%); for Any Serious Adverse Events: treatment-emergent; for Elevated Serum Creatinine >[…] / Elevated Serum Creatinine ≥3.0 mg/dl / Elevated Serum Potassium >6.0 mmol/liter / Elevated Serum Potassium >[…] / Reduced Serum Potassium < […] / Systolic Blood Pressure <100 mm Hg: patients with at least one assessment
# Excerpt: Safety assessments includes adverse events (AEs), serious adverse events (SAEs), vital signs including heart rate and blood pressure assessment. Safety laboratory tests includes blood chemistry, hematology and urinalysis.
# The following safety procedures and variables have been assessed during the study: • SAEs and AEs leading to discontinuation of treatment with study intervention; • Change in body weight from baseline; • Change in serum potassium from baseline; • Number of participants with hyperkalemia (serum potassium >5.5 mmol/L); • Number of participants with severe hyperkalemia (serum potassium >6.0 mmol/L); • Number of participants with hospitalization for hyperkalemia; • Number of participants permanently discontinuing study intervention due to Hyperkalemia; • Change in vital signs (heart rate, SBP and DBP) from baseline; • Change in renal function measured by eGFR (CKD-EPI formula) change from baseline; • Number of participants with hospitalization for worsening of renal function; • Number of participants permanently discontinuing study intervention due to worsening of renal function; and • Changes in laboratory values from baseline.
# AEs that occurred or worsened after the first dose of study drug and up to 3 days after the last dose of study drug have been considered as treatment-emergent AEs (TEAEs).
# An overall summary of all AEs and treatment emergent AEs (TEAEs) has been generated by treatment group. The number and percentage of patients with TEAEs, post-treatment AEs occurring more than 3 days after last intake of study intervention, treatment-emergent SAEs, treatment-emergent study intervention-related AEs, treatment-emergent study intervention-related SAEs, TEAEs causing premature and permanent discontinuation of study intervention, treatment-emergent non-serious AEs, TEAEs by maximum intensity, drug-related TEAEs by maximum intensity has been summarized by treatment group using Medical Dictionary for Regulatory Activity (MedDRA) terms grouped by Primary System Organ Class and Preferred Term.
# The number of patients with treatment-emergent (until 3 days after last study intervention administration) abnormal laboratory values above or below the normal range has been tabulated by the laboratory parameter and treatment group.
# Summary statistics including changes from baseline have been calculated by treatment group and visit for all quantitative laboratory parameters, i.e. for hematology, clinical chemistry and urinalysis. Geometric statistics and ratios to baseline has been presented for urinary albumin-to-creatinine ratio (UACR), creatinine, and NT-proBNP, instead of arithmetic statistics with changes from baseline.
# The following special safety parameters have been further assessed by displaying the number and percentage of patients with safety events as described below by treatment group, visit, and for any time on treatment (including unscheduled assessments) and until 3 days after last study intervention administration. This has also been performed by stratification factors.
# [5] = No SGLT2i Use, finerenone n = 2,601
smiles,measurement,setting,value
"CCOc1ncc(C)c2c1[C@H](c1ccc(C#N)cc1OC)C(C(N)=O)=C(C)N2 [finerenone, (4S)-4-(4-cyano-2-methoxyphenyl)-5-ethoxy-2,8-dimethyl-1,4-dihydro-1,6-naphthyridine-3-carboxamide]",systolic and diastolic function,[1],improvement
same,"Change in KCCQ-TSS from baseline to 12 months, difference in mean (95% CI) finerenone vs placebo",[2]; bilirubin Tertile 2 0.5-0.6 mg/dL,0.69 (−0.92 to 2.30)
same,"Change in KCCQ-TSS from baseline to 12 months, difference in mean (95% CI) finerenone vs placebo",[2]; bilirubin Tertile 3 ≥0.7 mg/dL,3.15 (1.52 to 4.77)
same,"cardiovascular events, including heart failure hospitalizations",[3],reduced
same,kidney disease progression,[3],reduced
same,Any Adverse Events leading to Treatment Discontinuation,[4]; [5],90 (3.5%)
same,Hyperkalemia leading to Treatment Discontinuation,[4]; [5],12 (0.5%)
same,Investigator Reported Hyperkalemia,[4]; [5],246 (9.5%)
same,Investigator Reported Hyperkalemia leading to Hospitalization,[4]; [5],14 (0.5%)
same,Any Serious Adverse Events,[4]; [5],995 (38.3%)
same,Elevated Serum Creatinine >[…],[4]; No SGLT2i Use,120 (4.8%)
same,Elevated Serum Creatinine ≥3.0 mg/dl,[4]; No SGLT2i Use,50 (2.0%)
same,Elevated Serum Potassium >6.0 mmol/liter,[4]; No SGLT2i Use,76 (3.0%)
same,Elevated Serum Potassium >[…],[4]; No SGLT2i Use,358 (14.2%)
same,Reduced Serum Potassium < […],[4]; No SGLT2i Use,118 (4.7%)
same,Systolic Blood Pressure <100 mm Hg,[4]; No SGLT2i Use,435 (17.2%)
same,Any Adverse Events leading to Treatment Discontinuation,"[4]; SGLT2i Use, finerenone n = 392",6 (1.5%)
same,Hyperkalemia leading to Treatment Discontinuation,"[4]; SGLT2i Use, finerenone n = 392",1 (0.3%)
same,Investigator Reported Hyperkalemia,"[4]; SGLT2i Use, finerenone n = 392",43 (11.0%)
same,Investigator Reported Hyperkalemia leading to Hospitalization,"[4]; SGLT2i Use, finerenone n = 392",2 (0.5%)
same,Any Serious Adverse Events,"[4]; SGLT2i Use, finerenone n = 392",162 (41.3%)
same,Elevated Serum Creatinine >[…],[4]; SGLT2i Use,21 (5.5%)
same,Elevated Serum Creatinine ≥3.0 mg/dl,[4]; SGLT2i Use,7 (1.8%)
same,Elevated Serum Potassium >6.0 mmol/liter,[4]; SGLT2i Use,10 (2.6%)
same,Elevated Serum Potassium >[…],[4]; SGLT2i Use,55 (14.5%)
same,Reduced Serum Potassium < […],[4]; SGLT2i Use,9 (2.4%)
same,Systolic Blood Pressure <100 mm Hg,[4]; SGLT2i Use,103 (27.0%)
